Measurements reported in PubChem BioAssay AID248 (DTP/NCI, 2004).
Several values for one entry are separate records, joined by “and”; a condition that tells them apart may be missing. Identical values can stand only once. Inconclusive results and toxic doses are left out. No stated cut-off is given here; in the data, active means T/C of 150% or more; inactive means T/C below 125%.

System: L1210 leukemia ip in BDF1 mice, survival T/C
Assay: NCI In Vivo Anticancer Drug Screen. Data for tumor model L1210 Leukemia (intraperitoneal) in B6D2F1 (BDF1) mice
Details: higher = longer survival
How it was run: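 Antitumor effect is assessed in tumor-bearing animals. Survival in the compound arm is compared with a vehicle-dosed control arm and expressed as their quotient.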

Measured: T/C

C[n+]1c2ccccc2nc2c(N)cc(N)cc21
inactive: endpoint: mean survival time, dose: 1.0 mg/kg/injection, schedule: Q03HX024 (ip), vehicle: saline 101 % of control | endpoint: mean survival time, dose: 1.25 mg/kg/injection, schedule: Q#A X030 (ip), vehicle: water 104 % of control | endpoint: mean survival time, dose: 2.0 mg/kg/injection, schedule: Q01DX005 (iv), vehicle: saline 99 % of control | endpoint: mean survival time, dose: 2.0 mg/kg/injection, schedule: Q01DX009 (ip), vehicle: saline 96 % of control | endpoint: mean survival time, dose: 2.0 mg/kg/injection, schedule: Q03HX016 (ip), vehicle: saline 101 % of control | endpoint: mean survival time, dose: 2.0 mg/kg/injection, schedule: Q03HX024 (ip), vehicle: saline 107 % of control | endpoint: mean survival time, dose: 2.5 mg/kg/injection, schedule: Q01DX010 (oral), vehicle: water 105 % of control | endpoint: mean survival time, dose: 2.5 mg/kg/injection, schedule: Q#A X030 (ip), vehicle: water 107 % of control | endpoint: mean survival time, dose: 3.0 mg/kg/injection, schedule: Q01DX Z (ip), vehicle: saline 109 % of control | endpoint: mean survival time, dose: 3.12 mg/kg/injection, schedule: Q01DX001 (ip), vehicle: water 109 % of control and 110 % of control | endpoint: mean survival time, dose: 4.0 mg/kg/injection, schedule: Q01DX001 (iv), vehicle: saline 94 % of control | endpoint: mean survival time, dose: 4.0 mg/kg/injection, schedule: Q01DX005 (iv), vehicle: saline 96 % of control | endpoint: mean survival time, dose: 4.0 mg/kg/injection, schedule: Q01DX007 (iv), vehicle: saline 113 % of control | endpoint: mean survival time, dose: 4.0 mg/kg/injection, schedule: Q01DX009 (ip), vehicle: saline 104 % of control | endpoint: mean survival time, dose: 4.0 mg/kg/injection, schedule: Q01DX Z (sc), vehicle: steriod suspending solution 103 % of control | endpoint: mean survival time, dose: 4.0 mg/kg/injection, schedule: Q03HX008 (ip), vehicle: saline 107 % of control | endpoint: mean survival time, dose: 4.0 mg/kg/injection, schedule: Q03HX016 (ip), vehicle: saline 96 % of control | endpoint: mean survival time, dose: 4.0 mg/kg/injection, schedule: Q03HX024 (ip), vehicle: saline 100 % of control | endpoint: mean survival time, dose: 4.4 mg/kg/injection, schedule: Q#A X Z (ip), vehicle: carboxymethylcellulose (CMC) 110 % of control | endpoint: mean survival time, dose: 5.0 mg/kg/injection, schedule: Q01DX001 (ip), vehicle: saline 103 % of control | endpoint: mean survival time, dose: 5.0 mg/kg/injection, schedule: Q01DX009 (ip), vehicle: saline 111 % of control | endpoint: mean survival time, dose: 5.0 mg/kg/injection, schedule: Q01DX Z (im), vehicle: saline 104 % of control | endpoint: mean survival time, dose: 5.0 mg/kg/injection, schedule: Q01DX Z (ip), vehicle: saline 112 % of control | endpoint: mean survival time, dose: 6.25 mg/kg/injection, schedule: Q01DX001 (ip), vehicle: water 110 % of control | endpoint: mean survival time, dose: 6.65 mg/kg/injection, schedule: Q#A X Z (ip), vehicle: carboxymethylcellulose (CMC) 104 % of control | endpoint: mean survival time, dose: 8.0 mg/kg/injection, schedule: Q01DX001 (iv), vehicle: saline 96 % of control | endpoint: mean survival time, dose: 8.0 mg/kg/injection, schedule: Q01DX005 (iv), vehicle: saline 93 % of control | endpoint: mean survival time, dose: 8.0 mg/kg/injection, schedule: Q01DX007 (iv), vehicle: saline 104 % of control | endpoint: mean survival time, dose: 8.0 mg/kg/injection, schedule: Q01DX009 (ip), vehicle: saline 101 % of control | endpoint: mean survival time, dose: 8.0 mg/kg/injection, schedule: Q01DX Z (sc), vehicle: steriod suspending solution 109 % of control | endpoint: mean survival time, dose: 8.0 mg/kg/injection, schedule: Q03HX008 (ip), vehicle: saline 110 % of control | endpoint: mean survival time, dose: 8.0 mg/kg/injection, schedule: Q03HX016 (ip), vehicle: saline 101 % of control | endpoint: mean survival time, dose: 8.0 mg/kg/injection, schedule: Q03HX024 (ip), vehicle: saline 112 % of control | endpoint: mean survival time, dose: 8.0 mg/kg/injection, schedule: Q04DX003 (ip), vehicle: saline 101 % of control | endpoint: mean survival time, dose: 10.0 mg/kg/injection, schedule: Q01DX001 (ip), vehicle: saline 103 % of control | endpoint: mean survival time, dose: 10.0 mg/kg/injection, schedule: Q01DX010 (oral), vehicle: water 113 % of control | endpoint: mean survival time, dose: 10.0 mg/kg/injection, schedule: Q01DX Z (im), vehicle: saline 106 % of control | endpoint: mean survival time, dose: 12.5 mg/kg/injection, schedule: Q01DX001 (ip), vehicle: water 112 % of control | endpoint: mean survival time, dose: 16.0 mg/kg/injection, schedule: Q01DX001 (iv), vehicle: saline 96 % of control | endpoint: mean survival time, dose: 16.0 mg/kg/injection, schedule: Q01DX005 (iv), vehicle: saline 102 % of control | endpoint: mean survival time, dose: 16.0 mg/kg/injection, schedule: Q01DX009 (sc), vehicle: saline 104 % of control | endpoint: mean survival time, dose: 16.0 mg/kg/injection, schedule: Q01DX Z (sc), vehicle: steriod suspending solution 104 % of control and 105 % of control | endpoint: mean survival time, dose: 16.0 mg/kg/injection, schedule: Q03HX008 (ip), vehicle: saline 107 % of control | endpoint: mean survival time, dose: 16.0 mg/kg/injection, schedule: Q03HX016 (ip), vehicle: saline 104 % of control and 113 % of control | endpoint: mean survival time, dose: 16.0 mg/kg/injection, schedule: Q04DX003 (ip), vehicle: saline 103 % of control | endpoint: mean survival time, dose: 16.0 mg/kg/injection, schedule: Q08DX002 (ip), vehicle: saline 102 % of control | endpoint: mean survival time, dose: 20.0 mg/kg/injection, schedule: Q01DX001 (ip), vehicle: saline 101 % of control | endpoint: mean survival time, dose: 20.0 mg/kg/injection, schedule: Q01DX009 (ip), vehicle: saline 110 % of control | endpoint: mean survival time, dose: 20.0 mg/kg/injection, schedule: Q01DX010 (oral), vehicle: water 107 % of control and 111 % of control | endpoint: mean survival time, dose: 20.0 mg/kg/injection, schedule: Q01DX Z (im), vehicle: saline 108 % of control | endpoint: mean survival time, dose: 20.0 mg/kg/injection, schedule: Q01DX Z (ip), vehicle: saline 114 % of control | endpoint: mean survival time, dose: 20.0 mg/kg/injection, schedule: Q01DX Z (oral), vehicle: saline 106 % of control | endpoint: mean survival time, dose: 25.0 mg/kg/injection, schedule: Q01DX001 (ip), vehicle: other 112 % of control | endpoint: mean survival time, dose: 32.0 mg/kg/injection, schedule: Q01DX001 (ip), vehicle: saline 108 % of control | endpoint: mean survival time, dose: 32.0 mg/kg/injection, schedule: Q01DX001 (iv), vehicle: saline 96 % of control | endpoint: mean survival time, dose: 32.0 mg/kg/injection, schedule: Q01DX009 (oral), vehicle: saline 102 % of control | endpoint: mean survival time, dose: 32.0 mg/kg/injection, schedule: Q01DX009 (sc), vehicle: saline 106 % of control | endpoint: mean survival time, dose: 32.0 mg/kg/injection, schedule: Q01DX Z (sc), vehicle: steriod suspending solution 100 % of control | endpoint: mean survival time, dose: 32.0 mg/kg/injection, schedule: Q03HX016 (ip), vehicle: saline 110 % of control | endpoint: mean survival time, dose: 32.0 mg/kg/injection, schedule: Q04DX003 (ip), vehicle: saline 107 % of control | endpoint: mean survival time, dose: 32.0 mg/kg/injection, schedule: Q08DX002 (ip), vehicle: saline 98 % of control | endpoint: mean survival time, dose: 37.0 mg/kg/injection, schedule: Q01DX001 (ip), vehicle: other 107 % of control | endpoint: mean survival time, dose: 40.0 mg/kg/injection, schedule: Q01DX001 (ip), vehicle: saline 110 % of control | endpoint: mean survival time, dose: 40.0 mg/kg/injection, schedule: Q01DX009 (ip), vehicle: saline 97 % of control | endpoint: mean survival time, dose: 40.0 mg/kg/injection, schedule: Q01DX010 (oral), vehicle: water 104 % of control | endpoint: mean survival time, dose: 40.0 mg/kg/injection, schedule: Q01DX Z (ip), vehicle: saline 109 % of control | endpoint: mean survival time, dose: 50.0 mg/kg/injection, schedule: Q01DX001 (ip), vehicle: water 110 % of control | endpoint: mean survival time, dose: 56.0 mg/kg/injection, schedule: Q01DX001 (ip), vehicle: other 111 % of control | endpoint: mean survival time, dose: 61.6 mg/kg/injection, schedule: Q07DX Z (ip), vehicle: carboxymethylcellulose (CMC) 112 % of control | endpoint: mean survival time, dose: 64.0 mg/kg/injection, schedule: Q01DX001 (ip), vehicle: saline 114 % of control | endpoint: mean survival time, dose: 64.0 mg/kg/injection, schedule: Q01DX001 (oral), vehicle: saline 106 % of control | endpoint: mean survival time, dose: 64.0 mg/kg/injection, schedule: Q01DX001 (sc), vehicle: saline 98 % of control | endpoint: mean survival time, dose: 64.0 mg/kg/injection, schedule: Q01DX009 (oral), vehicle: saline 98 % of control | endpoint: mean survival time, dose: 64.0 mg/kg/injection, schedule: Q01DX Z (sc), vehicle: steriod suspending solution 101 % of control | endpoint: mean survival time, dose: 64.0 mg/kg/injection, schedule: Q08DX002 (ip), vehicle: saline 104 % of control | endpoint: mean survival time, dose: 80.0 mg/kg/injection, schedule: Q01DX001 (ip), vehicle: saline 103 % of control | endpoint: mean survival time, dose: 80.0 mg/kg/injection, schedule: Q01DX010 (oral), vehicle: water 110 % of control | endpoint: mean survival time, dose: 93.1 mg/kg/injection, schedule: Q07DX Z (ip), vehicle: carboxymethylcellulose (CMC) 110 % of control | endpoint: mean survival time, dose: 128.0 mg/kg/injection, schedule: Q01DX001 (oral), vehicle: saline 98 % of control | endpoint: mean survival time, dose: 128.0 mg/kg/injection, schedule: Q01DX001 (sc), vehicle: saline 98 % of control | endpoint: mean survival time, dose: 128.0 mg/kg/injection, schedule: Q08DX002 (ip), vehicle: saline 104 % of control | endpoint: mean survival time, dose: 140.0 mg/kg/injection, schedule: Q07DX Z (ip), vehicle: carboxymethylcellulose (CMC) 112 % of control | endpoint: mean survival time, dose: 160.0 mg/kg/injection, schedule: Q01DX010 (oral), vehicle: water 110 % of control | endpoint: mean survival time, dose: 256.0 mg/kg/injection, schedule: Q01DX001 (oral), vehicle: saline 98 % of control | endpoint: mean survival time, dose: 256.0 mg/kg/injection, schedule: Q01DX001 (sc), vehicle: saline 105 % of control | endpoint: mean survival time, dose: 256.0 mg/kg/injection, schedule: Q01DX009 (oral), vehicle: saline 104 % of control and 114 % of control | endpoint: mean survival time, dose: 288.0 mg/kg/injection, schedule: Q01DX Z (oral), vehicle: other 103 % of control | endpoint: mean survival time, dose: 432.0 mg/kg/injection, schedule: Q01DX Z (oral), vehicle: other 95 % of control | endpoint: mean survival time, dose: 512.0 mg/kg/injection, schedule: Q01DX001 (oral), vehicle: saline 106 % of control | endpoint: mean survival time, dose: 512.0 mg/kg/injection, schedule: Q01DX009 (oral), vehicle: saline 112 % of control | endpoint: mean survival time, dose: 1024.0 mg/kg/injection, schedule: Q01DX001 (oral), vehicle: saline 109 % of control | endpoint: median survival time, dose: 5.0 mg/kg/injection, schedule: Q01DX009 (ip), vehicle: saline 110 % of control and 113 % of control
